{
  "source": "ChEMBL document CHEMBL4411291",
  "about": "“Synthesis and anti-tumor activity of imidazopyrazines as TAK1 inhibitors” (Eur J Med Chem, 2019)",
  "key": {"[1]": {"assay": "Stability in mouse plasma assessed as parent compound remaining after 6 hrs by LC-MS/MS analysis", "type": "ADME, cell-free", "settings": "read-out: Stability"}, "[2]": {"assay": "Stability in human plasma assessed as parent compound remaining after 6 hrs by LC-MS/MS analysis", "type": "ADME, cell-free", "settings": "read-out: Stability"}, "[3]": {"target": "TAK1/TAB1 (Homo sapiens, UniProt O43318)", "sequence (Q15750 whole entry, one chain of several, the tested form may be a part)": "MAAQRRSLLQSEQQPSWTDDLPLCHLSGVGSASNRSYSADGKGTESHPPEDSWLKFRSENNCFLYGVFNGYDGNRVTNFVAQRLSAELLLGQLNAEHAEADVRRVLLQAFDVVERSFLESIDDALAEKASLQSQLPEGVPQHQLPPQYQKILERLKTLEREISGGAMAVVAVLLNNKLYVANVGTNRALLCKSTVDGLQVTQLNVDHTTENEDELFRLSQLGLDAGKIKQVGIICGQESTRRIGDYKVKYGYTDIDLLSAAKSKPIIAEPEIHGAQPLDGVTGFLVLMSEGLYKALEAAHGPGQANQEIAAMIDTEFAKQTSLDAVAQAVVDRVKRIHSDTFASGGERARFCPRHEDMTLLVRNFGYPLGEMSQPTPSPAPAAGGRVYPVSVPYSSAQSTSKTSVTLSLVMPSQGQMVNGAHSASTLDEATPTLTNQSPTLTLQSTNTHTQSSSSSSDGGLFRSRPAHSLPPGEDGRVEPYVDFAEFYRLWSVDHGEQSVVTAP", "assay": "Inhibition of N-terminal His-tagged human TAK1 (1 to 303 amino acids)/human TAB1 (437 to 504 amino acids) expressed in baculovirus expression system using fluorescence-labeled substrate by off-chip mobility shift assay"}, "[4]": {"target": "High affinity nerve growth factor receptor (Homo sapiens) (UniProt P04629)", "sequence (P04629 33-796 limits assumed)": "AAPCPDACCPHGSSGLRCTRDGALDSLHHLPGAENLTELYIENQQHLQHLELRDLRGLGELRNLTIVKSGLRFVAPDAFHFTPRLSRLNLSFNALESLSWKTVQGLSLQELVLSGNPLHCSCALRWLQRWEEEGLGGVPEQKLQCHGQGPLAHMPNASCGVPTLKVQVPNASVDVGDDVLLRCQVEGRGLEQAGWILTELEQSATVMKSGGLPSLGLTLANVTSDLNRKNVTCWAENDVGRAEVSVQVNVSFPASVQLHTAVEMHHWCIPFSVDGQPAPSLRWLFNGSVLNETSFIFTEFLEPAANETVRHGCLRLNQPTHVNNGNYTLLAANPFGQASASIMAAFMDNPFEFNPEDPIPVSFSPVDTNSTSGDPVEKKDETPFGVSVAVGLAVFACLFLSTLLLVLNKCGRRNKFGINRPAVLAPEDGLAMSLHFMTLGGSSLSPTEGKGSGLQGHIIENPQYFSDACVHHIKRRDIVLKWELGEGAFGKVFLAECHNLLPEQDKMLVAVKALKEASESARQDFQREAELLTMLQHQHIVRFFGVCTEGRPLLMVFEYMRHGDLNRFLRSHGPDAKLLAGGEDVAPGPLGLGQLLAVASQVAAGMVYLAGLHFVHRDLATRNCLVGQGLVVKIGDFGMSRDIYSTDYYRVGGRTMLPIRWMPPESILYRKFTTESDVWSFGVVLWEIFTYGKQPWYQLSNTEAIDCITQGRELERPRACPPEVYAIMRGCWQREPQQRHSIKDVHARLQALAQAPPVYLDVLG", "assay": "Inhibition of NTRK1 (unknown origin) at 1 uM by LanthaScreen Eu kinase binding assay relative to control"}, "[5]": {"system": "SW-620", "assay": "Induction of apoptosis in human SW620 cells assessed as Caspase-3 activity at 10 uM after 24 hrs by Caspase-3/7 reagent-based fluorescence assay", "type": "functional, cell-based"}, "[6]": {"target": "CDK2/Cyclin A2 (Homo sapiens) (UniProt P24941+P20248)", "assay": "Inhibition of CDK2/cyclin A (unknown origin) at 1 uM by LanthaScreen Eu kinase binding assay relative to control", "type": "protein-complex assay"}, "[7]": {"target": "Voltage-gated inwardly rectifying potassium channel KCNH2 (Homo sapiens, UniProt Q12809)", "assay": "Binding affinity to human ERG by fluorescence polarization assay"}, "[8]": {"target": "Inhibitor of nuclear factor kappa-B kinase subunit beta (Homo sapiens) (UniProt O14920)", "assay": "Inhibition of IKKbeta (unknown origin) at 1 uM by LanthaScreen Eu kinase binding assay relative to control"}, "[9]": {"assay": "AUC (0 to 7 hrs) in ICR mouse at 8.2 mg/kg, po administered as single dose or 3 mg/kg, iv by LC-MS/MS analysis", "type": "ADME, organism-based", "settings": "in vivo"}, "[10]": {"system": "SW-620", "assay": "Antitumor activity against human SW620 cells xenografted in CAnN.Cg-Foxnlnu/Crljbgi nude mouse assessed as tumor growth inhibition at 100 mg/kg, po dosed daily for 14 consecutive days", "type": "functional, organism-based"}, "[11]": {"assay": "Cmax in ICR mouse at 8.2 mg/kg, po administered as single dose or 3 mg/kg, iv by LC-MS/MS analysis", "type": "ADME, organism-based", "settings": "in vivo"}, "[12]": {"assay": "Stability in human liver microsomes assessed as parent compound remaining after 60 mins in presence of NADPH by HPLC analysis", "type": "ADME, Microsome", "settings": "read-out: Stability"}, "[13]": {"assay": "Half life in ICR mouse at 8.2 mg/kg, po administered as single dose or 3 mg/kg, iv by LC-MS/MS analysis", "type": "ADME, organism-based", "settings": "in vivo"}, "[14]": {"target": "Cytochrome P450 2C19 (Homo sapiens, UniProt P33261)", "assay": "Inhibition of CYP2C19 in liver microsomes (unknown origin) using (+/-) N-3-benzylnirvanol as […] preincubated for 5 mins followed by NADPH addition and measured after 15 mins by LC-MS/MS analysis", "type": "ADME"}, "[15]": {"system": "LoVo", "assay": "Growth inhibition of human LoVo cells after 96 hrs by SRB assay", "type": "functional, cell-based"}, "[16]": {"target": "Cytochrome P450 2B6 (Homo sapiens, UniProt P20813)", "sequence (P20813 whole entry)": "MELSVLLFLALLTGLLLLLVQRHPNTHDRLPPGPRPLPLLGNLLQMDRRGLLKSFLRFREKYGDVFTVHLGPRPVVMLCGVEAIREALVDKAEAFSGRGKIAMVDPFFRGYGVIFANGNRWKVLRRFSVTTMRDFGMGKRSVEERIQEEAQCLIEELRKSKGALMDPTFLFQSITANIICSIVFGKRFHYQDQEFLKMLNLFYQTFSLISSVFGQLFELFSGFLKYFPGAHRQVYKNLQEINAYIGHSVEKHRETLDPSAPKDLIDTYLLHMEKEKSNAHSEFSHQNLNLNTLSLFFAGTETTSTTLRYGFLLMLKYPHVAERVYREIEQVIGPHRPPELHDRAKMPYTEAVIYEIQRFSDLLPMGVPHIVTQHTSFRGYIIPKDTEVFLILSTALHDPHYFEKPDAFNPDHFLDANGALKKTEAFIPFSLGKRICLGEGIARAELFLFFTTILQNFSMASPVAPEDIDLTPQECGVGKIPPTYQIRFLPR", "assay": "Inhibition of CYP2B6 in liver microsomes (unknown origin) using clopidogrel as […] preincubated for 5 mins followed by NADPH addition and measured after 15 mins by LC-MS/MS analysis", "type": "ADME"}, "[17]": {"assay": "Toxicity in CAnN.Cg-Foxnlnu/Crljbgi nude mouse xenografted with human SW620 cells at 100 mg/kg, po dosed daily for 14 consecutive days", "type": "organism-based", "settings": "in vivo"}, "[18]": {"target": "Epidermal growth factor receptor (Homo sapiens) (UniProt P00533)", "assay": "Inhibition of EGFR (unknown origin) at 1 uM by LanthaScreen Eu kinase binding assay relative to control"}, "[19]": {"target": "T1, Mitogen-activated protein kinase kinase kinase 7 (Homo sapiens) (UniProt O43318)", "T1 sequence (whole entry)": "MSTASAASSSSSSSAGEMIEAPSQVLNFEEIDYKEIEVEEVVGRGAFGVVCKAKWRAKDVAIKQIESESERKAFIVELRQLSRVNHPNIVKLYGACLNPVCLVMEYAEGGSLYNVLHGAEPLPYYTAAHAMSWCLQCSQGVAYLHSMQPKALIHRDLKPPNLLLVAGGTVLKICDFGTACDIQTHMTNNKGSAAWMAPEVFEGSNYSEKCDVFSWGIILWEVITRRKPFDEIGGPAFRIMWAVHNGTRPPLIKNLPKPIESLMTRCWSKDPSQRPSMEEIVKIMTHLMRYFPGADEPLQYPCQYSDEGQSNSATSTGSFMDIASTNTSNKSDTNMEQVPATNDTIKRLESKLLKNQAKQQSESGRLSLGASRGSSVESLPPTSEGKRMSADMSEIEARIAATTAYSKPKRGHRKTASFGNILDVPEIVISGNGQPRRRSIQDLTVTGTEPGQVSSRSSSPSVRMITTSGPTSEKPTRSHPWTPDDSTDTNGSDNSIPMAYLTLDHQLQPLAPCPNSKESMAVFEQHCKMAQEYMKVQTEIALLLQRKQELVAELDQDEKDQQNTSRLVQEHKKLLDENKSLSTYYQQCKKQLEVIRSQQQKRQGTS", "assay": "Inhibition of TAK1 phosphorylation in human SW620 cells after 24 hrs by immunoblotting analysis", "type": "cell-based"}, "[20]": {"system": "SW-620", "assay": "Growth inhibition of human SW620 cells after 96 hrs by SRB assay", "type": "functional, cell-based", "settings": "SW-620, 96 h"}, "[21]": {"assay": "Toxicity in CAnN.Cg-Foxnlnu/Crljbgi nude mouse xenografted with human SW620 cells assessed as weight loss at 100 mg/kg, po dosed daily for 14 consecutive days", "type": "organism-based", "settings": "in vivo"}, "[22]": {"target": "T1, Mitogen-activated protein kinase kinase kinase 7 (Homo sapiens)", "assay": "Inhibition of TAK1 (unknown origin) at 0.1 uM by LanthaScreen Eu kinase binding assay relative to control"}, "[23]": {"target": "Cytochrome P450 1A2 (Homo sapiens, UniProt P05177)", "sequence (P05177 whole entry)": "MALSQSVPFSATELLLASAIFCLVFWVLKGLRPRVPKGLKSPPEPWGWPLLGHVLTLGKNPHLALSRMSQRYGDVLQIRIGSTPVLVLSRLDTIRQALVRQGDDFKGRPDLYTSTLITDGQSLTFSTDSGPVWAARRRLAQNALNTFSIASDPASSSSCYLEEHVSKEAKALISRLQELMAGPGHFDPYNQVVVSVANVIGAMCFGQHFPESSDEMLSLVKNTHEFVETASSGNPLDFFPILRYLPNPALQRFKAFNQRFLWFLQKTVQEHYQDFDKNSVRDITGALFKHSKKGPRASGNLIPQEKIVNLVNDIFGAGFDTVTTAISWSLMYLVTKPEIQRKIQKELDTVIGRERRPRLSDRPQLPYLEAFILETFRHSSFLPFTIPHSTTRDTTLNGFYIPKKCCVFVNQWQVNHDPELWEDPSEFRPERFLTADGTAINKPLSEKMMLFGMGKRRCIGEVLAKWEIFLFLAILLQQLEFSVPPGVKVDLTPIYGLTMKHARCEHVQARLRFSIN", "assay": "Inhibition of CYP1A2 in liver microsomes (unknown origin) using alpha-naphthoflavone as […] preincubated for 5 mins followed by NADPH addition and measured after 15 mins by LC-MS/MS analysis", "type": "ADME"}, "[24]": {"assay": "Oral bioavailability in ICR mouse at 8.2 mg/kg administered as single dose by LC-MS/MS analysis", "type": "ADME, organism-based", "settings": "in vivo"}, "[25]": {"assay": "Stability in mouse liver microsomes assessed as parent compound remaining after 60 mins in presence of NADPH by HPLC analysis", "type": "ADME, Microsome", "settings": "read-out: Stability"}, "[26]": {"system": "SK-CO-1", "assay": "Growth inhibition of human SKCO1 cells after 96 hrs by SRB assay", "type": "functional, cell-based", "settings": "SK-CO-1, 96 h"}, "[27]": {"target": "Mitogen-activated protein kinase 14 (Homo sapiens) (UniProt Q16539)", "sequence (Q16539 whole entry)": "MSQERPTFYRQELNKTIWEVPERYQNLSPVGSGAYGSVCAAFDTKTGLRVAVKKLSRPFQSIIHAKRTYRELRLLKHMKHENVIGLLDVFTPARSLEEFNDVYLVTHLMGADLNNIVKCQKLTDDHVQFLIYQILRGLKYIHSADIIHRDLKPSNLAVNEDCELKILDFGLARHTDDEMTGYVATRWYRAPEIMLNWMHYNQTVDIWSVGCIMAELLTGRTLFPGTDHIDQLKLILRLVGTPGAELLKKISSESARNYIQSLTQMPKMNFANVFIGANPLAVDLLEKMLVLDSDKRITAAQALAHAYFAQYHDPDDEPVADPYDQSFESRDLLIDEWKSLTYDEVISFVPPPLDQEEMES", "assay": "Inhibition of […] (unknown origin) at 1 uM by LanthaScreen Eu kinase binding assay relative to control"}, "[28]": {"target": "Cytochrome P450 3A4 (Homo sapiens, UniProt P08684)", "sequence (P08684 whole entry)": "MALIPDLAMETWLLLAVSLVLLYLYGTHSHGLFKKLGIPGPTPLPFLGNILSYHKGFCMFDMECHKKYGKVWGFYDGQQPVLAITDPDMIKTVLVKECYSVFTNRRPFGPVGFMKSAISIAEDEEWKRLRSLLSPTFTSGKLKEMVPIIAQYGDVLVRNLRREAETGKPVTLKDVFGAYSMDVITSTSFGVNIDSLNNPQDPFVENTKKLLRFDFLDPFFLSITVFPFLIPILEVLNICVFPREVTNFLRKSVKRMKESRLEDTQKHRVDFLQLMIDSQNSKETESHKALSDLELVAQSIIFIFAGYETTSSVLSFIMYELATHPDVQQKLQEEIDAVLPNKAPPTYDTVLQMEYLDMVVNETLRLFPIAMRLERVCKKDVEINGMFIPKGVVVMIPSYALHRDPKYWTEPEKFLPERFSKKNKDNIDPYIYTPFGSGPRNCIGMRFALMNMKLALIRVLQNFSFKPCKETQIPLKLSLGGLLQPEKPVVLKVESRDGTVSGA", "assay": "Inhibition of CYP3A4 in liver microsomes (unknown origin) using ketoconazole as […] preincubated for 5 mins followed by NADPH addition and measured after 15 mins by LC-MS/MS analysis", "type": "ADME"}, "[29]": {"target": "Cytochrome P450 2C9 (Homo sapiens, UniProt P11712)", "assay": "Inhibition of CYP2C9 in liver microsomes (unknown origin) using sulfaphenazole as […] preincubated for 5 mins followed by NADPH addition and measured after 15 mins by LC-MS/MS analysis", "type": "ADME"}, "[30]": {"target": "Platelet-derived growth factor receptor alpha (Homo sapiens) (UniProt P16234)", "assay": "Inhibition of PDGFRalpha (unknown origin) at 1 uM by LanthaScreen Eu kinase binding assay relative to control"}, "[31]": {"target": "Glycogen synthase kinase-3 beta (Homo sapiens) (UniProt P49841)", "sequence (P49841 whole entry, looked up)": "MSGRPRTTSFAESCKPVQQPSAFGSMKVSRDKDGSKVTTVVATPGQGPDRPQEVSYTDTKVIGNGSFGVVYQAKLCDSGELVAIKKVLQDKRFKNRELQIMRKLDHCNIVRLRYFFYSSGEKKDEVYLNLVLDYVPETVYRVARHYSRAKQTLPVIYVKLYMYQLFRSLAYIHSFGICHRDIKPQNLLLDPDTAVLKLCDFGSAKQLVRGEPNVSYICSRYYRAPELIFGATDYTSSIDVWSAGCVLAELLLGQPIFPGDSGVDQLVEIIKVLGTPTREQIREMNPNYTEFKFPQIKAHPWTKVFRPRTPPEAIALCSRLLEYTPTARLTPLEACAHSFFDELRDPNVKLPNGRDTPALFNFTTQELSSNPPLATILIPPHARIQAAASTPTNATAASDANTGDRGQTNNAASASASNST", "assay": "Inhibition of GSK3b (unknown origin) at 1 uM by LanthaScreen Eu kinase binding assay relative to control"}, "[32]": {"target": "Ribosomal protein S6 kinase alpha-1 (Homo sapiens) (UniProt Q15418)", "assay": "Inhibition of RPS6KA1 (unknown origin) at 1 uM by LanthaScreen Eu kinase binding assay relative to control"}, "[33]": {"target": "Serine/threonine-protein kinase B-raf (Homo sapiens) (UniProt P15056)", "sequence (P15056 whole entry)": "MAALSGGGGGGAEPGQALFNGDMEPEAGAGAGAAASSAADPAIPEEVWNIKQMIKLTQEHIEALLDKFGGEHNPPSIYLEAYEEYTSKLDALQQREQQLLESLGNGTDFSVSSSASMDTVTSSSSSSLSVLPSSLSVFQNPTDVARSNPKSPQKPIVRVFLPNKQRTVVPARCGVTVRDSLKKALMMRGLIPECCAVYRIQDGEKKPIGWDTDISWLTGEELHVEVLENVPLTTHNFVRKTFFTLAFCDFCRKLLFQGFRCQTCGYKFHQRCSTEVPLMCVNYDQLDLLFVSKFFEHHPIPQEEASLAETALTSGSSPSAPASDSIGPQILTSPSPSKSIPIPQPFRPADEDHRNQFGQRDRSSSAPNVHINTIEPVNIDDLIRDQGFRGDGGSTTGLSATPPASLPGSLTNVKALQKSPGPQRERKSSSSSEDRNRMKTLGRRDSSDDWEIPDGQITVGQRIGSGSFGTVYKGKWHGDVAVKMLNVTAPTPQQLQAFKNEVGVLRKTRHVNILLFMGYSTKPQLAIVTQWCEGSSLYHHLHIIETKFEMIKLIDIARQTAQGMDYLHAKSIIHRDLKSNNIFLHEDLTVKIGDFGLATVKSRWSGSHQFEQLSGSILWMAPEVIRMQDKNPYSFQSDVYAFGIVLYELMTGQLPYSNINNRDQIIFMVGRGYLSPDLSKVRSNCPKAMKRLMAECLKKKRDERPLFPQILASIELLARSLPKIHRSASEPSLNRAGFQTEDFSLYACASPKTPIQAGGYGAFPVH", "assay": "Inhibition of BRAF (unknown origin) at 1 uM by LanthaScreen Eu kinase binding assay relative to control"}, "[34]": {"target": "Tyrosine-protein kinase BTK (Homo sapiens) (UniProt Q06187)", "sequence (Q06187 whole entry)": "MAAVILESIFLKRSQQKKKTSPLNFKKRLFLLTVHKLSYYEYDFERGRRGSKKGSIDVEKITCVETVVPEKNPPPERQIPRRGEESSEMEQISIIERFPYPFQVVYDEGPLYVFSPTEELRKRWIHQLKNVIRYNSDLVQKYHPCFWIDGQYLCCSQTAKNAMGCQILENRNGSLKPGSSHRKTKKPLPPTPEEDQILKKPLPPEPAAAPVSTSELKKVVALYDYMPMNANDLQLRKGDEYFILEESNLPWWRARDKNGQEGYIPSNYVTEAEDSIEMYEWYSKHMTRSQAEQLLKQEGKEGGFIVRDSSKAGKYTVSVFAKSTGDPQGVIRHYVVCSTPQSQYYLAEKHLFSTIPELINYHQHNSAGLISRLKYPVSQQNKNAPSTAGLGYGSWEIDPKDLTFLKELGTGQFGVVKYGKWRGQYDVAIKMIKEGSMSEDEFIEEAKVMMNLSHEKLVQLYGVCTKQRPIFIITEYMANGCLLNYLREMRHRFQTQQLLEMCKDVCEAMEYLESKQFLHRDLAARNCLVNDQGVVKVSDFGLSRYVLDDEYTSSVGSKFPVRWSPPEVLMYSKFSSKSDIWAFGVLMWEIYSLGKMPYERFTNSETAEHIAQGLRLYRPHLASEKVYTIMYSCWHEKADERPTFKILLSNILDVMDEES", "assay": "Inhibition of BTK (unknown origin) at 1 uM by LanthaScreen Eu kinase binding assay relative to control"}, "[35]": {"target": "T1, Mitogen-activated protein kinase kinase kinase 7 (Homo sapiens)", "assay": "Inhibition of TAK1 (unknown origin) at 1 uM by LanthaScreen Eu kinase binding assay relative to control"}},
  "note": "Active and inactive are the calls of the source. The calls are words filed in the database; no cut-off is given here.",
  "data": [
    {"smiles": "Cc1cc(NC(=O)Nc2cc(C(C)(C)C)nn2-c2ccccc2)ccc1-c1cnc(NC2CC2)c2nccn12", "values": [
      {"measurement": "remaining at 6 h", "setting": "[1]", "value": 88, "unit": "%"},
      {"measurement": "remaining at 6 h", "setting": "[2]", "value": 90, "unit": "%"},
      {"measurement": "IC50", "setting": "[3]", "value": 37, "unit": "nM"},
      {"measurement": "inhibition", "setting": "[4]", "value": 82, "unit": "%"},
      {"measurement": "Activity", "setting": "[5]", "value": "Active"},
      {"measurement": "inhibition", "setting": "[6]", "value": 1, "unit": "%"},
      {"measurement": "IC50", "setting": "[7]", "value": "> 50000", "unit": "nM"},
      {"measurement": "inhibition", "setting": "[8]", "value": 0, "unit": "%"},
      {"measurement": "AUC(0-t)", "setting": "[9]", "value": 3140, "unit": "ng·h/mL"},
      {"measurement": "Activity", "setting": "[10]", "value": "Active"},
      {"measurement": "Cmax", "setting": "[11]", "value": 1930, "unit": "ng/mL"},
      {"measurement": "remaining at 1 h", "setting": "[12]", "value": 37, "unit": "%"},
      {"measurement": "half-life", "setting": "[13]", "value": 1.6, "unit": "h"},
      {"measurement": "IC50", "setting": "[14]", "value": "> 25000", "unit": "nM"},
      {"measurement": "IC50", "setting": "[15]", "value": 391, "unit": "nM"},
      {"measurement": "IC50", "setting": "[16]", "value": "> 25000", "unit": "nM"},
      {"measurement": "Activity", "setting": "[17]", "value": "Non-Toxic"},
      {"measurement": "inhibition", "setting": "[18]", "value": 45, "unit": "%"},
      {"measurement": "inhibition", "setting": "[19]", "value": "Dose-dependent effect"},
      {"measurement": "IC50", "setting": "[20]", "value": 330, "unit": "nM"},
      {"measurement": "Activity", "setting": "[21]", "value": "Non-Toxic"},
      {"measurement": "inhibition", "setting": "[22]", "value": 56, "unit": "%"},
      {"measurement": "IC50", "setting": "[23]", "value": "> 25000", "unit": "nM"},
      {"measurement": "bioavailability", "setting": "[24]", "value": 25.2, "unit": "%"},
      {"measurement": "remaining at 1 h", "setting": "[25]", "value": 44, "unit": "%"},
      {"measurement": "IC50", "setting": "[26]", "value": 274, "unit": "nM"},
      {"measurement": "inhibition", "setting": "[27]", "value": 82, "unit": "%"},
      {"measurement": "IC50", "setting": "[28]", "value": 3520, "unit": "nM"},
      {"measurement": "IC50", "setting": "[29]", "value": 3500, "unit": "nM"},
      {"measurement": "inhibition", "setting": "[30]", "value": 88, "unit": "%"},
      {"measurement": "inhibition", "setting": "[31]", "value": 51, "unit": "%"},
      {"measurement": "inhibition", "setting": "[32]", "value": 4, "unit": "%"},
      {"measurement": "inhibition", "setting": "[33]", "value": 37, "unit": "%"},
      {"measurement": "inhibition", "setting": "[34]", "value": 0, "unit": "%"},
      {"measurement": "inhibition", "setting": "[35]", "value": 98, "unit": "%"}
    ]}
  ]
}
